Columns and labels:
hTLR7 = molecular target: T1, hTLR7 (Homo sapiens, UniProt Q9NYK1); assay: TLR7 reporter assay in HEK-Blue cells (SEAP, Quanti-Blue); type: cell-based; settings: 24 hours incubation, SEAP absorbance at 620 nm
T1 construct: host or cells: HEK-Blue hTLR7 (HEK293-derived SEAP reporter cells)
T1 sequence (Q9NYK1 27-1049): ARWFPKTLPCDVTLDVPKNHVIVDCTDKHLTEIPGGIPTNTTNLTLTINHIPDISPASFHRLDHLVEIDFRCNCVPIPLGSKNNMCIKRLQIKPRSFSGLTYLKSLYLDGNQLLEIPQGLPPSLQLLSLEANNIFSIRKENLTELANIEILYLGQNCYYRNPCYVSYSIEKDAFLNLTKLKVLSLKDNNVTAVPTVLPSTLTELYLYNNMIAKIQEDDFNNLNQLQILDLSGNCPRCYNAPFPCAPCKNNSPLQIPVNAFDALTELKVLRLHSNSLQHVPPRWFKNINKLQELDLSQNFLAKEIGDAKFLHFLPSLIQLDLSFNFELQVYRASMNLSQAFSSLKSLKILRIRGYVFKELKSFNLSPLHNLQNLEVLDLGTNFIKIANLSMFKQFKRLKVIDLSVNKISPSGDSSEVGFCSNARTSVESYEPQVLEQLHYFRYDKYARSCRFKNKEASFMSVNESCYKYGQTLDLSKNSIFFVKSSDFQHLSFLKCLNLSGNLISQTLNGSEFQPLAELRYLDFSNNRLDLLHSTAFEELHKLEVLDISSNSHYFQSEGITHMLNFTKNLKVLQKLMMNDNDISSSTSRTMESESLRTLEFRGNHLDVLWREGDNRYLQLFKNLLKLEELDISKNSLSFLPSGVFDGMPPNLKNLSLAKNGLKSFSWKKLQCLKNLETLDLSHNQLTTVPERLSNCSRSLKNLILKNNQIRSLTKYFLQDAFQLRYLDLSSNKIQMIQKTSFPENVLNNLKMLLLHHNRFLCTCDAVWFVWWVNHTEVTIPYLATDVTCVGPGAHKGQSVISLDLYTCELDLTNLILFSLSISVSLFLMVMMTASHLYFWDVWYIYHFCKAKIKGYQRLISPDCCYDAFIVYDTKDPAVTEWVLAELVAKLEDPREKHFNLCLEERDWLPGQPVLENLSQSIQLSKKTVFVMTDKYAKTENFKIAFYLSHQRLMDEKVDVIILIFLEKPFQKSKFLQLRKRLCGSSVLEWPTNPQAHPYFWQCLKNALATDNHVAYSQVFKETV
Method: (§1) HEK-Blue™ TLR7 and TLR8 cell lines were obtained from InvivoGen (San Diego, CA, USA). HEK-Blue cells were cultured in DMEM medium hi glucose (Gibco-10569010) supplemented with 10% HI-FBS (Aus origin) (Gibco-10100-147), 1% penicillin/streptomycin (Gibco-15140-122-100 ml) as per manufacturer's recommendation. In addition, specific antibiotic mixtures were added to the culture. 100 μg/ml Zeocin (11006-33-0), 10 μg/ml Blasticidin (ant-bl-05), 50 μg/ml Normocin (ANT-NR-1-500 MG) for HEK-Blue™ hTLR7 and 100 μg/ml Zeocin, 30 μg/ml Blasticidin, 50 μg/ml Normocin for HEK-Blue™ hTLR8 cells (all from InvivoGen).
(§2) All the compounds were prepared in 100% DMSO (Sigma-D2650). The compounds were serially diluted in 100% DMSO (3 fold) up to 10 point dose response curve starting with 30 μM; final concentration of DMSO in the plate was 0.3%. Resiquimod and TL8-506 (InvivoGen-tlrl-t18506) were used as controls. 0.3% DMSO and 10 μM Resiquimod were used as min and max respectively, and % activation was calculated using following formula:
(§3) % Activation: {100−(max absorbance−absorbance)/(max absorbance−min absorbance)}×100.
(§4) For stimulation with TLR7/8 agonists, cells were resuspended in complete media and 40 μl of cell suspension (10,000 cells/well) was seeded on day 1 in 384 well assay plate (Thermo Scientific™ Nunc-164688) having pre-dispensed compounds with Echo Liquid handler. The plate was spun at 100 g for 1 min to settle down the cells and incubated at 37° C. with 5% CO2 for 24 hours. For measuring production of SEAP after 24 hrs of incubation, 10 μl of Quanti-Blue™ solution (InvivoGen rep-qbs2) prepared according to manufacturer's instructions was added in dark to the assay plate and incubated at 37° C. with 5% CO2 for 30 min. Post incubation, the absorbance was measured at 620 nm in Tecan spark (Spark control Magellan). EC50 were determined using Graph Pad Prism Statistical software (Version 7.05), with individual data points represent the absorbance values of duplicates.

hTLR8 = molecular target: T2, hTLR8 (Homo sapiens, UniProt Q9NR97); assay: TLR8 reporter assay in HEK-Blue cells (SEAP, Quanti-Blue); type: cell-based; settings: 24 hours incubation, SEAP absorbance at 620 nm
T2 construct: host or cells: HEK-Blue hTLR8 (HEK293-derived SEAP reporter cells)
T2 sequence (Q9NR97 27-1041): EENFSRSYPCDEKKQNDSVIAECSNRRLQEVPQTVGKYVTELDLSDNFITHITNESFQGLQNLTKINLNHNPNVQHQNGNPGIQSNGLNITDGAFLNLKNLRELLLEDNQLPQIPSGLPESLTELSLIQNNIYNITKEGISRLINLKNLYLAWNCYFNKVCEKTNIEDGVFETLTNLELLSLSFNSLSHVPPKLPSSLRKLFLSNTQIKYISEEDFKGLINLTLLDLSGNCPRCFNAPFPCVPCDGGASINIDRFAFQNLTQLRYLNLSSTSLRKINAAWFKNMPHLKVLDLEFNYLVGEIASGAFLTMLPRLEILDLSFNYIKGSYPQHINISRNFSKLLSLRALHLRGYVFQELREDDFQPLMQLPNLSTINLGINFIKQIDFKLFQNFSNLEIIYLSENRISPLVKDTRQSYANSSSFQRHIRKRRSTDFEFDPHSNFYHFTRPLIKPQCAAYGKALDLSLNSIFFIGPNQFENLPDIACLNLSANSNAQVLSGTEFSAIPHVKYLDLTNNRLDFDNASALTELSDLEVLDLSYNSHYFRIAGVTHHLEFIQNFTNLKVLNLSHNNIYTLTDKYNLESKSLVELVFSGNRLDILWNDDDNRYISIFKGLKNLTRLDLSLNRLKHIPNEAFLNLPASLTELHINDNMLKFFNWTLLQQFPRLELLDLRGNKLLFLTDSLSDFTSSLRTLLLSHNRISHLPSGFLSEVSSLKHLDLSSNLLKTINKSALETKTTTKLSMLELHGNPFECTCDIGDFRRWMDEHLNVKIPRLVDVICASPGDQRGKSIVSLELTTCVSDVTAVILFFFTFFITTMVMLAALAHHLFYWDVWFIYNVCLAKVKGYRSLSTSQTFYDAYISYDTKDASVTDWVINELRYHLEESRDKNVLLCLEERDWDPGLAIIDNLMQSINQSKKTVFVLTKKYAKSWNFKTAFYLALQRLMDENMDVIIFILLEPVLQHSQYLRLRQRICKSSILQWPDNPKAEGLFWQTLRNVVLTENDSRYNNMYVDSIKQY
Method: as §1, §2, §3, §4

Row | EC50 (hTLR7) | EC50 (hTLR8) | SMILES
1 | < 10 nM | 1000 to 10000 nM | CCOCc1nc2c(N)nc3ccccc3c2n1CC(C)(C)OCCCCN1CCN(C)CC1 [Example 3]
2 | 10 to 100 nM | 100 to 1000 nM | CCOCc1nc2c(N)nc3ccccc3c2n1CC(C)(C)OCCCCN1CCOCC1 [Example 7]
3 | 100 to 1000 nM | 1000 to 10000 nM | CCOCc1nc2c(N)nc3ccccc3c2n1CC(C)(C)OCCCCN1CCN(CCN)CC1 [Example 11]
4 | 100 to 1000 nM | 10 to 100 nM | CCOCc1nc2c(N)nc3ccccc3c2n1CC(C)(C)OC(=O)CN [Example 19]
5 | 10 to 100 nM | 1000 to 10000 nM | CCOCc1nc2c(N)nc3ccccc3c2n1CC(C)(C)OCCCCn1cc(CN)nn1 [Example 14]
6 | < 10 nM | 100 to 1000 nM | CCOCc1nc2c(N)nc3ccccc3c2n1CC(C)(C)OCCCCCN1CCN(C)CC1 [Example 4]
7 | 1000 to 10000 nM | > 10000 nM | CCNCc1nc2c(N)nc3ccccc3c2n1CC(C)(C)OCCCCN1CCN(C)CC1 [Example 18]
8 | 10 to 100 nM | 1000 to 10000 nM | CCOCc1nc2c(N)nc3ccccc3c2n1CC(C)(C)OCCCCN1CCCCC1 [Example 8]
9 | 10 to 100 nM | 1000 to 10000 nM | CCOCc1nc2c(N)nc3ccccc3c2n1CC(C)(C)OCCCCN1CCNCC1 [Example 10]
10 | 10 to 100 nM | 1000 to 10000 nM | CCOCc1nc2c(N)nc3ccccc3c2n1CC(C)(C)OCCCN1CCN(C)CC1 [Example 2]
11 | 10 to 100 nM | > 10000 nM | CCOCc1nc2c(N)nc3ccccc3c2n1CC(C)(C)OCCCCn1cc(CO)nn1 [Example 13]
12 | 10 to 100 nM | 100 to 1000 nM | CCOCc1nc2c(N)nc3ccccc3c2n1CC(C)(C)OCCCCN1CCCC1 [Example 9]

Row | SMILES | EC50 (hTLR7) | EC50 (hTLR8)
13 | CCOCc1nc2c(N)nc3ccccc3c2n1CC(C)(C)OCCCCN1CCN(CC(C)(C)SC)CC1 [Example 27] | 10 to 100 nM | 1000 to 10000 nM
